Assay [1] addresses Serine/threonine-protein kinase pim-1 (Homo sapiens, UniProt P11309). Nature of the assay: Inhibition of PIM1 (unknown origin) using TAMRA-ERMRPRKRQGSVRRRV-NH2 as substrate pretreated for 30 mins followed by substrate addition measured after 1 hr by IMAP assay.
Assay [2] addresses T1, Glycogen synthase kinase-3 beta (Homo sapiens, UniProt P49841). Nature of the assay: Inhibition of human GSK3beta using YRRAAVPPSPSLSRHSSPHQ(pS)EDEEE as substrate in presence of [gamma-33P]-ATP.
Assay [3] addresses T2, Phosphatidylinositol 4,5-bisphosphate 3-kinase catalytic subunit delta isoform (Homo sapiens, UniProt O00329).
T2 sequence (O00329 whole entry): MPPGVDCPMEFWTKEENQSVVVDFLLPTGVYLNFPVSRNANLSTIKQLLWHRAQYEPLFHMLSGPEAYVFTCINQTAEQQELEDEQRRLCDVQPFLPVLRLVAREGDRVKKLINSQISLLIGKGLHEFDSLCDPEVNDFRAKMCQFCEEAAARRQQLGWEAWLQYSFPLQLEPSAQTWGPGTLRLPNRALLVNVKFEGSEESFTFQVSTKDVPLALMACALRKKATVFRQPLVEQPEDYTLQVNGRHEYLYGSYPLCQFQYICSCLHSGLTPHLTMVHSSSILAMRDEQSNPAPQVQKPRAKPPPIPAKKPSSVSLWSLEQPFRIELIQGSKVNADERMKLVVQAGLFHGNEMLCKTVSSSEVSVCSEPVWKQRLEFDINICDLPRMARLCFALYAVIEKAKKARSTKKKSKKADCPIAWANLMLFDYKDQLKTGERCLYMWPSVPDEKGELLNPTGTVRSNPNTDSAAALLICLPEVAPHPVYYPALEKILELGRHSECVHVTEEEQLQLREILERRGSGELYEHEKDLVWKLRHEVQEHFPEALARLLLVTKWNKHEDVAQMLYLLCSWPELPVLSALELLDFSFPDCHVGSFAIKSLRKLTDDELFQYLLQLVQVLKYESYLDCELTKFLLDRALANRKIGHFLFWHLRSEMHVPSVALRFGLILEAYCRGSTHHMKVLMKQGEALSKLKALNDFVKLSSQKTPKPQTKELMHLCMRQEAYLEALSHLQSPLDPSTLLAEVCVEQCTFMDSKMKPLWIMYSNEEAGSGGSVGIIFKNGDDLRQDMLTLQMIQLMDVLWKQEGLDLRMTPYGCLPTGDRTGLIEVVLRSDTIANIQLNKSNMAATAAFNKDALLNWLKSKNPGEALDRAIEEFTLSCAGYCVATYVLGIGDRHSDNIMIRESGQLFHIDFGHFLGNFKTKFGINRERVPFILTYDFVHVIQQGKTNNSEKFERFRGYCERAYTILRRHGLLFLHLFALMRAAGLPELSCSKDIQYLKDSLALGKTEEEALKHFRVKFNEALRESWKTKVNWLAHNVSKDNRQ
The experiment in a line: Inhibition of PI3Kdelta (unknown origin) using PIP2 as substrate pretreated for 15 mins followed by substrate addition measured after 1 hr.

For assay [4], the target named is Phosphatidylinositol 4,5-bisphosphate 3-kinase catalytic subunit alpha isoform (Homo sapiens, UniProt P42336). The experiment in a line: Inhibition of PI3Kalpha (unknown origin) using PIP2 as substrate pretreated for 15 mins followed by substrate addition measured after 1 hr.
In assay [5] the target is Phosphatidylinositol 4,5-bisphosphate 3-kinase catalytic subunit beta isoform (Homo sapiens, UniProt P42338). The experiment in a line: Inhibition of PI3Kbeta (unknown origin) using PIP2 as substrate pretreated for 15 mins followed by substrate addition measured after 1 hr.
Assay [6] deals with Phosphatidylinositol 4,5-bisphosphate 3-kinase catalytic subunit gamma isoform (Homo sapiens, UniProt P48736). Nature of the assay: Inhibition of PI3Kgamma (unknown origin) using PIP2 as substrate pretreated for 15 mins followed by substrate addition measured after 1 hr.
The target in assay [7] is T1, Glycogen synthase kinase-3 beta. The experiment in a line: Inhibition of GSK3beta (unknown origin) after 1 hr by fluorescence polarization assay. (In general: Fluorescence polarisation rises when a labelled molecule tumbles more slowly, as on binding a larger partner.)
The species named for the next assay is Homo sapiens. The experiment in a line: Selectivity ratio of pIC50 for ALK5 (unknown origin) to pIC50 for PI3Kdelta (unknown origin).

Sequence of Phosphatidylinositol 4,5-bisphosphate 3-kinase catalytic subunit alpha isoform (P42336 whole entry, canonical isoform): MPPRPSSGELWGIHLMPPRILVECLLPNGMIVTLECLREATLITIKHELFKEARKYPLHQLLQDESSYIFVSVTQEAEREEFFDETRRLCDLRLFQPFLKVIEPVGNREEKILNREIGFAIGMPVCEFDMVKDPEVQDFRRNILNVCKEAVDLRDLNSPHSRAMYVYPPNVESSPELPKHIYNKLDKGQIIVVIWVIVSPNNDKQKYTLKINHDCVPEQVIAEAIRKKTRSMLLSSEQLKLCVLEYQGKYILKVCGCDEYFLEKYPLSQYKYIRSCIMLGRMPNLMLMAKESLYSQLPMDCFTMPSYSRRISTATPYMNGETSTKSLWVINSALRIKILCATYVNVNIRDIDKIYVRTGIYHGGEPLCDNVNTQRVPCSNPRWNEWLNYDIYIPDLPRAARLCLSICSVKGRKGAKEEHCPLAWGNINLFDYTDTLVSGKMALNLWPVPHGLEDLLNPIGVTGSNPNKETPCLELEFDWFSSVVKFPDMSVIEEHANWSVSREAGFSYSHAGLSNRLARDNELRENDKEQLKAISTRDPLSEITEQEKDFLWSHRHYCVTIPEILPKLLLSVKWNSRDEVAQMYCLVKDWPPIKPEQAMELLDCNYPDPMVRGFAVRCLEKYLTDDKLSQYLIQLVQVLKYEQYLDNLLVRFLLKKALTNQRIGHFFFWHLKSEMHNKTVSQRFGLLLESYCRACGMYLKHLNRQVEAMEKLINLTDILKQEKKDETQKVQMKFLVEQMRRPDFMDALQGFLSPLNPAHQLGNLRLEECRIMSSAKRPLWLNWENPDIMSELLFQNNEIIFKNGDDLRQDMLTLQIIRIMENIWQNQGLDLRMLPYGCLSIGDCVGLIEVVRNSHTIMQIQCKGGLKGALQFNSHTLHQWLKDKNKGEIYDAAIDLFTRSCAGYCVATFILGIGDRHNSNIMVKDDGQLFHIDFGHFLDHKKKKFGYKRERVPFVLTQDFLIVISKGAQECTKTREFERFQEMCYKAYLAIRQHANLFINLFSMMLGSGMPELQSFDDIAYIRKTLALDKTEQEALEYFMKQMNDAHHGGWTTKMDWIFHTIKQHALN
Sequence of Phosphatidylinositol 4,5-bisphosphate 3-kinase catalytic subunit beta isoform (P42338 whole entry, canonical isoform): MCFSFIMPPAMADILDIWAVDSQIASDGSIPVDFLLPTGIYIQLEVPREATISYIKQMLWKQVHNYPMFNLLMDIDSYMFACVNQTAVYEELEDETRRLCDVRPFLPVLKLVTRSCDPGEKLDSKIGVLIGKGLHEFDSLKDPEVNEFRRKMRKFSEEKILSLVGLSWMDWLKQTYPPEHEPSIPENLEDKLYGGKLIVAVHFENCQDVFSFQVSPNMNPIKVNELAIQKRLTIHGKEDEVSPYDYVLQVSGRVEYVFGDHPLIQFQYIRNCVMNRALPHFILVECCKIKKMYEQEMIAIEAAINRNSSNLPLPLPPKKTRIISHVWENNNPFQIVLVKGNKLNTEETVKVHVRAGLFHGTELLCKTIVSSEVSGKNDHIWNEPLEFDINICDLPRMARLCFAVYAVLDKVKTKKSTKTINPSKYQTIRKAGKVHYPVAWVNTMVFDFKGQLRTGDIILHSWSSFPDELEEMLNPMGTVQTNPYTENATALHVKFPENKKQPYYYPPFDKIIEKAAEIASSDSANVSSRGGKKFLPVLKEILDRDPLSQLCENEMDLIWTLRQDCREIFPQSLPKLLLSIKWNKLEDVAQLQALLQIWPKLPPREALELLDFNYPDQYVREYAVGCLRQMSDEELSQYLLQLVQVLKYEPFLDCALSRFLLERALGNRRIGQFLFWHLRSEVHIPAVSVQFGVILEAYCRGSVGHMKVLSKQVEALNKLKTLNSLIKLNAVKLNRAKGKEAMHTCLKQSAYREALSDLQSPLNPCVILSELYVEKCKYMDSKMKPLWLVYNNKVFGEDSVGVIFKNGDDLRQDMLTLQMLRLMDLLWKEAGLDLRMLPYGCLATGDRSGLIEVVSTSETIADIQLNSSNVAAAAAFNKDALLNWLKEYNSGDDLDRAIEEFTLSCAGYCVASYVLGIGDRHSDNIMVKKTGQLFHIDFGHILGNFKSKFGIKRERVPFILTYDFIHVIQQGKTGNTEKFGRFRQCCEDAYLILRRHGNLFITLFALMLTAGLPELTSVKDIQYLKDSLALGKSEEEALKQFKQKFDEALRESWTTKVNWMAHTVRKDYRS
Sequence of Serine/threonine-protein kinase pim-1 (P11309 whole entry): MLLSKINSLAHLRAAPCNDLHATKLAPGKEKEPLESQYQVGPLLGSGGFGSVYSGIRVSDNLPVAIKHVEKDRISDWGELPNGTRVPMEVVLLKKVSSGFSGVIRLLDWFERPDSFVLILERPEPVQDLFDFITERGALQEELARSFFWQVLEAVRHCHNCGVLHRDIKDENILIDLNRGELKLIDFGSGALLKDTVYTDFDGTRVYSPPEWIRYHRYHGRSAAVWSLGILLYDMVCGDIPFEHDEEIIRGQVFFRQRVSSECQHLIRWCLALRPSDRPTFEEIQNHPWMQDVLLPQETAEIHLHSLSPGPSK
T1 sequence (P49841 whole entry, canonical isoform): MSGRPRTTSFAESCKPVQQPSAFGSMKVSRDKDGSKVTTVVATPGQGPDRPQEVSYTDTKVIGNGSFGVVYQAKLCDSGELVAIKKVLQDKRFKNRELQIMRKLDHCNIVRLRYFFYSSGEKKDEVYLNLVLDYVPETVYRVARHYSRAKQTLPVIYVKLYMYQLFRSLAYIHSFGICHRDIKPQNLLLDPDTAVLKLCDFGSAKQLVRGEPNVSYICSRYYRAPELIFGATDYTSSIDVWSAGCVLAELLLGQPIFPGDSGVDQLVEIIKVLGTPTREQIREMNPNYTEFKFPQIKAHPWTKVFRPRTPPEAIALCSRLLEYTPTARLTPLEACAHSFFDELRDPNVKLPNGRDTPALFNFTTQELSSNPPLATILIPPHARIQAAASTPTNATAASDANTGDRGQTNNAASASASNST
Sequence of Phosphatidylinositol 4,5-bisphosphate 3-kinase catalytic subunit gamma isoform (P48736 whole entry, canonical isoform): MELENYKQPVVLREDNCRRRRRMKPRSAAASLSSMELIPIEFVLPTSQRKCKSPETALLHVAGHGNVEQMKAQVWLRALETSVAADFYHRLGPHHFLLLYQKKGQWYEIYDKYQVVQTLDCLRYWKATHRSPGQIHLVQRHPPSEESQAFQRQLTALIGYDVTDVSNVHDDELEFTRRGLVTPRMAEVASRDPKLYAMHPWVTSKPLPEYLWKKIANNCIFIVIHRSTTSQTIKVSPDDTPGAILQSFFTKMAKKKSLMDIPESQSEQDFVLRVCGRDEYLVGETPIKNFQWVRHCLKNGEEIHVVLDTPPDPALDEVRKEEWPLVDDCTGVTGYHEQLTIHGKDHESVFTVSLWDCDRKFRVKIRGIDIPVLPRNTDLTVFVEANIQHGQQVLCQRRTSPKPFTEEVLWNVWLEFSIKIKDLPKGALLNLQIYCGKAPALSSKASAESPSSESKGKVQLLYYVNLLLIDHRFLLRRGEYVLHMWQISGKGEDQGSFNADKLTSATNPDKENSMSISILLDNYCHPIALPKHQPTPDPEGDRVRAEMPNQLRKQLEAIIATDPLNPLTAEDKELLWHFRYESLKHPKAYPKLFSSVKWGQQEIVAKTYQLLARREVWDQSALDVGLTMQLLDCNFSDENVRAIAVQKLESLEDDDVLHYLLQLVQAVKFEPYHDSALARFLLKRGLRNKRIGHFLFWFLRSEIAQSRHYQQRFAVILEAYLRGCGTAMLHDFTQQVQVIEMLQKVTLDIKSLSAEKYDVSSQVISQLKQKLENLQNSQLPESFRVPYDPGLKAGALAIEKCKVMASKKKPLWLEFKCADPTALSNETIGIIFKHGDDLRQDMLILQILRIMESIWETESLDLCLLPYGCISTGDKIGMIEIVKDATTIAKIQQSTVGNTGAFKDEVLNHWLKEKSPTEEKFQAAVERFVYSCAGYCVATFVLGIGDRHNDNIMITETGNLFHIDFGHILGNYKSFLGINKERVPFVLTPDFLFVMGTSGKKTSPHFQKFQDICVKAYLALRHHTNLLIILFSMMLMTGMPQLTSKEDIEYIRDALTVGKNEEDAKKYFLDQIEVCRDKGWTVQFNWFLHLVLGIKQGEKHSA

The IC50 is the concentration needed to halve the response being measured. `O=C(Nc1cc(-c2ccc(O)cc2)cc2[nH]ncc12)c1ccccn1`: the IC50 was 126 nM in assay [1]; 1.58 µM in assay [2]; 0.501 µM in assay [3]; greater than 25.1 µM in assay [4]; greater than 25.1 µM in assay [5]; 5.01 µM in assay [6].

On to `O=C(Nc1cc(-c2ccc3cc[nH]c3c2)cc2[nH]ncc12)c1ccccn1`, for which the IC50 in assay [7] is greater than 25.1 µM; in assay [3], 3.16 µM; in assay [4], 25.1 µM; in assay [5], 12.6 µM; in assay [6], 15.8 µM.

With `O=C(Nc1n[nH]c2cc(-c3ccc(O)cc3)ccc12)C1CC1`, the IC50 is 25.1 µM in assay [3], greater than 25.1 µM in assay [4], greater than 25.1 µM in assay [5] and greater than 25.1 µM in assay [6].

In the case of `O=C(Nc1cc(-c2ccc(O)cc2)cc2[nH]ncc12)C1CC1`, the IC50 is 316 nM in assay [1]; 0.631 µM in assay [7]; 6.31 µM in assay [3]; 25.1 µM in assay [4]; 25.1 µM in assay [5]; greater than 25.1 µM in assay [6].

As to `O=C(Nc1cc(-c2ccccc2)cc2[nH]ncc12)C1CC1`, the IC50 was 15800 nM in assay [1]; 31.6 µM in assay [7]; 20 µM in assay [3]; 25.1 µM in assay [4]; greater than 25.1 µM in assay [5]; 25.1 µM in assay [6].

As for `O=C(Nc1cc(-c2cccc(O)c2)cc2[nH]ncc12)C1CC1`, the IC50 in assay [1] was 2510 nM; in assay [7] it was 1.26 µM; in assay [3], 3.98 µM; in assay [4], 20 µM; in assay [5], 20 µM; in assay [6], 7.94 µM.

Consider `O=C(Nc1cc(-c2cccc3[nH]ccc23)cc2[nH]ncc12)c1ccccn1`, for which the IC50 in assay [1] was 2510 nM; in assay [7], 3.16 µM; in assay [2], 20 µM. Further, in the assay filed under Homo sapiens, the Ratio IC50 is less than 10.

`O=C(Nc1cc(-c2cccc(O)c2)cc2[nH]ncc12)c1ccccn1`: the IC50 in assay [1] is 2000 nM; in assay [7], 1.58 µM; in assay [3], 1.58 µM; in assay [4], 25.1 µM; in assay [5], 31.6 µM; in assay [6], 7.94 µM.

`O=C(Nc1cc(-c2cccc3[nH]ccc23)cc2[nH]ncc12)C1CC1`: the IC50 is 15800 nM in assay [1]; 7.94 µM in assay [7]; 1 µM in assay [3]; greater than 25.1 µM in assay [4]; 25.1 µM in assay [5]; greater than 25.1 µM in assay [6].

(Values after ChEMBL document CHEMBL4130529, “From PIM1 to PI3Kδ via GSK3β: Target Hopping through the Kinome” (ACS Med Chem Lett, 2017).)
